In general, melting point refers to the temperature, or range, at which the solid turns liquid. On to `Cc1ccc(C(=O)N[C@H]2CC[C@H](CCN3CCC(c4cccc5c4CCO5)CC3)CC2)cn1`, for which the melting point worked out at 202 °C.
Molecule `CC(C)(C)[S@](=O)N1CCC[C@@H]1c1ccc(Br)cc1` registered a melting point of 100 to 112 °C.
In the case of `CC1(C)CC(N(C=O)CCCCCCN(C=O)C2CC(C)(C)NC(C)(C)C2)CC(C)(C)N1`, the melting point was determined as 155 °C.
With `O=C(CNC(=O)OC(c1ccccc1)c1ccccc1)Oc1c(Cl)c(Cl)c(Cl)c(Cl)c1Cl`, the melting point fell in the range of 171 to 172 °C.
`CCC(C)C(C#N)NCC(O)c1ccccc1` (configuration not stated) displayed a melting point of 106 to 108 °C.
The molecule `c1cc(N2CCCCC2)ccc1OC12CCC(CC1)CC2` displayed a melting point of 66 to 68 °C.
`OC1(Cn2cncn2)C(=Cc2ccc(Cl)cc2)CCCC1C1CCCCC1` (configuration not stated) came in with a melting point of 144 °C.
In the case of `COC(=O)C(=CNC(C)=O)C(C)=O` it was 60 to 62 °C; in that of `O=c1c2c(n(-c3ccccc3)c3ncccc13)CCC2`, 235 to 237 °C; in that of `N#Cc1ccc(N(Cc2ccc(O)cc2)n2cnnc2)cc1`, 228 to 230 °C.
Consider `Cc1ccc(OCc2ccccc2)c(C(CCN2CC3(C)CC3(C)C2)c2ccccc2)c1` (configuration not stated), for which the melting point lay in the range of 93 to 95 °C.
In the case of `CCCN(CCC)c1nc(C#N)c(C#N)nc1CC` it was 58 to 60 °C; in that of `C=C1c2ccccc2CC(NO)c2ccccc21` (configuration not stated), 145 to 147 °C.
In turn, `O=C(c1cccc(C(F)(F)F)c1)c1cc2cccc(Br)c2s1` came in with a melting point of 135 to 136 °C.
`Nc1nc(N)nc(-c2ccc(NS(=O)(=O)c3ccccc3)cc2)n1` yielded a melting point of 197 to 199 °C.
Turning to `Nc1ncnc2c1ncn2C1CC(C=Cc2ccccc2)C(CO)O1` (configuration not stated), the melting point is 215 to 217 °C.
Under `Cc1c(-c2ccccc2)cccc1-c1ccc2ccccc2c1` stands 106 to 107 °C; under `COc1nc2cc(Cl)c(Cl)c(N3NN=CC3CCO)c2nc1OC` (configuration not stated), 212 to 214 °C.
In turn, `CNS(=O)(=O)c1ccc(-c2cccc3nc(Nc4cc(OC)c(OC)c(OC)c4)oc23)cc1` registered a melting point of 260 to 262 °C.
On to `O=C(O)c1cc2c(Cl)ncnc2s1`, for which the melting point was more than 265 °C.
`Cc1noc(NS(=O)(=O)c2ccccc2-c2ccc(-c3ncccn3)cc2)c1C` came in with a melting point of more than 210 °C.
In turn, `COc1ccc2cc(N)ccc2c1` showed a melting point of 133 to 136 °C.
Regarding `CC1=C(C#N)C(c2cncc3ncc(-c4ccccc4)cc23)C(C(=O)OC(C)C)=C(C)N1` (configuration not stated), the melting point is 192 °C.
The molecule `Cc1ccc(C=CC(C#N)=NO)cc1` gave a melting point of 135 to 137 °C.
For the molecule `O=c1[nH]ncc2[nH]c(-c3ccc(OC(F)F)c4c3C=CC(C3CC3)O4)cc12` (configuration not stated), the melting point is 232 to 242 °C.
Under `CC(=O)Nc1ccc(S(=O)(=O)Cc2cccc(OC(C)=O)c2)c2ccc(C#N)nc12` stands 229 to 231 °C; under `CCc1ncnc(O)c1Br`, 175 to 177 °C; under `O=C1CC(NC(=O)c2ccc3nc[nH]c3c2)CCCN1` (configuration not stated), 297 to 299 °C.
Consider `Cc1oc(-c2ccco2)nc1COc1ccc(COc2nn(-c3ccccc3)cc2/C=C/C(=O)O)cc1`, for which the melting point is 144 to 145 °C.
With `ClCc1cc2ccccc2c(-c2ccccc2)c1CCl`, the melting point turned out to be 93 °C.
The molecule `CC(C)c1ccc2c(c1)c(SC1CCCCC1)c(CC(C)(C)C(=O)O)n2Cc1ccc(Cl)cc1` gave a melting point of 166 to 168 °C.
Take `COc1ccc(C)cc1NC(=O)Nc1ccc(N2CCN(C(=O)C3CCCCC3)CC2)cc1`: the melting point was determined as 222 °C.
`COc1ccc(CC(=O)NC(NC(Cc2ccccc2C)=NC#N)C(C)(C)C)cc1OC` (configuration not stated) had a melting point of 153 to 155 °C.
`Nc1cccc(-c2ccc(C3CCN(Cc4ccc5c(c4)OCO5)CC3)cc2)n1` yielded a melting point of 150 to 165 °C.
Under `COC(=O)c1ccc(=O)n(N)c1` stands 136 to 137 °C.
Regarding `CNC(=O)C(Br)CCBr` (configuration not stated), the melting point was 48 to 49 °C.
On to `CCC(C)C(NC(=O)C(C)CS)C(=O)O` (configuration not stated), for which the melting point stood at 164 °C.
`COC(=O)C(Sc1ccc(Cl)cc1)c1ccc(Oc2ccc(Cl)cc2)cc1` (configuration not stated) yielded a melting point of 71 to 75 °C.
In the case of `O=C1C=C(c2cccc(Cl)c2)CN(Cc2ccccc2)C1`, the melting point lay in the range of 143 to 145 °C.
In the case of `Cn1cc(C(=O)CCl)cc1C(=O)c1ccc([N+](=O)[O-])cc1` it was 173 to 176 °C; in that of `NS(=O)(=O)c1ccc(S(=O)(=O)N2CCC(=O)CC2)cc1Cl`, 195 to 196 °C; in that of `COc1cc(C=O)c(Br)c(Cl)c1OC`, 118 to 119 °C.
With `COc1ccc(S(=O)(=O)N2Cc3[nH]c4ccccc4c3CC2C(=O)O)cc1` (configuration not stated), the melting point worked out at 154 °C.
The molecule `CCc1nn2c(O)cc(O)nc2c1S(=O)(=O)c1ccccc1` came in with a melting point of more than 230 °C.
In the case of `Cc1scc2c1N(C(=O)NCCN1CCC(CCCC3CCCN3C)CC1)c1ccccc1NC2=O` (configuration not stated) it was 145 to 146 °C; in that of `CCCCCCCCCCCCCCCC(=O)CSC`, 38 to 40 °C; in that of `Cc1ccc(C(=C/C=C/CO)c2ccc(C)cc2)cc1`, 82 to 83 °C.
Molecule `CC(C)(C)OC(=O)N1CCN(c2cccc([N+](=O)[O-])c2)CC1` registered a melting point of 82 to 92 °C.
Regarding `CC(=O)OCC1CCn2c(c(C3=C(c4c[nH]c5ccccc45)C(=O)NC3=O)c3ccccc32)C1` (configuration not stated), the melting point lay in the range of 264 to 265 °C.
In the case of `COc1cc2c(c(C(C)C)c1OC)C(=O)N(CCl)S2(=O)=O` it was 117 to 119 °C.
As for `COc1ccc2c3c(oc2c1)CC(C(=O)O)CC3` (configuration not stated), the melting point is 175 to 180 °C.
Molecule `Cc1ccc2[nH]c3ccc(C)cc3c2c1` had a melting point of 218 to 221 °C.
`COc1cc2c(c(Cl)c1Cl)C(=O)C(c1ccc(Br)cc1)C2` (configuration not stated) returned a melting point of 202 to 203 °C.
`O=CC(=C(c1ccc(F)cc1)c1ccc(F)cc1)n1nnnc1-c1ccccc1` showed a melting point of 193 to 194 °C.
Under `CN(C(=O)c1ccccc1N)c1ccccc1` stands 127 °C.
Under `CNC(=O)c1nc2ccc3c(c2c(-c2ccc4c(c2)OCO4)c1C)OCO3` stands 141 to 146 °C; under `ClCc1ncc(-c2ccccc2)cc1Cl`, 74 to 75 °C; under `[N-]=[N+]=NC1CC(n2cnc3c(NC4CC4c4ccccc4)nc(N)nc32)OC1CO` (configuration not stated), 65 to 70 °C.
`O=C(NCCNC1CCC(c2ccc3[nH]c(=O)oc3c2)CC1)c1ccccc1` (configuration not stated) had a melting point of 167 to 175 °C.
In the case of `O=C(NCC1Cc2c(cccc2-c2ccccc2)O1)OCc1ccccc1` (configuration not stated) it was 132 to 134 °C.
Molecule `CNCC1Cc2cc(-c3ccccc3)cc(-c3ccc(C)cc3)c2O1` (configuration not stated) came in with a melting point of more than 250 °C.
In the case of `Cc1ccc(-c2c(Cl)nc(-c3cccs3)nc2Cl)cc1` it was 120 °C.
In the case of `CC(C)CCS(=O)(=O)NC(=O)/C=C/c1cc(OC2CCOCC2)nn1Cc1ccc(Cl)cc1Cl` it was 143 to 144 °C; in that of `O=C1CCC(N2Cc3c(OCc4ccc(CN5CCC(c6ccncc6)CC5)cc4)cccc3C2=O)C(=O)N1` (configuration not stated), 198 to 200 °C; in that of `C=CC(=O)Nc1ccc2ncnc(Nc3ccc(Oc4ccccc4)cc3)c2c1`, 185 to 191 °C.
As to `O=C(C=Cc1cccc(S(=O)(=O)NCc2ccc3c(c2)OCO3)c1)NO`, the melting point was 163 °C.
In the case of `COC(=O)C1=C(C)NC(CCn2ccnc2)=C(C(=O)OC)C1c1cccc(Cl)c1Cl` (configuration not stated), the melting point lay within 180 to 182 °C.
Molecule `COc1cc2c(cc1OC)C1NC(=O)CCC1=C2c1ccccc1` (configuration not stated) displayed a melting point of 259 to 260 °C.
`C=CCNc1nc(NCC(C)(C)C)c2scc(C)c2n1` returned a melting point of 90 to 92 °C.
In turn, `CCOCc1nc2c(N)nc3cccnc3c2n1CCCCS(=O)(=O)NC` registered a melting point of 148 to 150 °C.
With `N#Cc1cc(Br)cc2ccc(O)c(Cl)c12`, the melting point was in the range of 148 to 150 °C.
In turn, `COc1ccc2c(c1)C(CC#N)CN(C(=O)OC(C)(C)C)C2` (configuration not stated) had a melting point of 75 to 77 °C.
In turn, `CCn1cc(C(=O)O)c(=O)c2cc(F)c(N3CCNC(c4ccoc4)C3)cc21` (configuration not stated) showed a melting point of 202 to 204 °C.
`N#Cc1ccc(OCCO)c(C(N)=O)c1` had a melting point of 144 to 146 °C.
In turn, `Nc1nc(-c2cc(Cl)ccc2Cl)nc(N2CCNC(=O)C2)n1` came in with a melting point of more than 275 °C.
In the case of `CC1=C(CN2CC(C(=O)O)C2)CCc2cc(OCCCc3ccc(F)cc3)ccc21` it was 154 to 155 °C; in that of `O=c1oc(C(F)(F)F)ccc1-c1ccc(F)cc1F`, 98 to 100 °C.
Molecule `COc1cc(-c2nc(-n3ccnc3)c3c(C)c(C#N)sc3n2)cc(OC)c1OC` came in with a melting point of 238 to 240 °C.
`Oc1ccc(-c2nnc(CCCCCCc3ccccc3)o2)cc1` displayed a melting point of 125 to 129 °C.
Turning to `CNC(=C[N+](=O)[O-])NCCCCCCCCCCCCNC(C[N+](=O)[O-])NCCSCc1ccc(CN(C)C)o1` (configuration not stated), the melting point lay within 78 to 80 °C.
In the case of `CC(C)(C)NC(=O)C(C)(C)C` it was 116 to 118 °C; in that of `CCn1c(=O)[nH]c2ncn(CC)c2c1=O`, 204 to 205 °C.
In turn, `Cc1cc2c(C(=O)C3=C(O)C4CCC(C4)C3=O)ccc(S(C)=O)c2o1` (configuration not stated) displayed a melting point of 243 to 244 °C.
Under `CCCCCCCNC(=O)Nc1ccc(N(C)C)cc1C(=O)NCC1CCN(C(c2ccc(OC)cc2)c2ccc(OC)cc2)CC1` stands 163 °C.
As for `CCOc1ccc(CN2CCc3cc(O)ccc3C2)cc1OCC`, the melting point lay within 150 to 154 °C.
`CC(=O)c1ccc2c(c1)C(=O)C1(CC1)S2`: the melting point is 128 to 129 °C.
Under `CCCCC(=O)Nc1ncc(Br)c(C)c1[N+](=O)[O-]` stands 134 to 135 °C; under `CCOC(=O)C=C(C)Nc1cc(C)ccc1C`, 67 °C.
Regarding `Oc1cc2c(cc1Sc1ccccc1)OCC2`, the melting point was 80 to 81 °C.
In turn, `CC(=O)NC[C@H]1CN(c2ccc(N3C[C@H]4CN(C(=O)CO)C[C@H]4C3)c(F)c2)C(=O)O1` gave a melting point of 167 to 168 °C.
Take `O=C(CCCl)N1c2ccccc2CCc2ccccc21`: the melting point fell in the range of 107 to 108 °C.
In the case of `CCOC(=O)C(N=Nc1ccccc1C(=O)c1ccccn1)NC(=O)CCl` (configuration not stated) it was 160 to 162 °C.

(Values after a melting point compilation (Tetko et al.; mined from patent text by program, amines drawn as free bases though some values may be those of a salt).)
